For series [1] the following is noted: doses as high as 800 times the recommended human dose; cited from earlier work.
For series [2] the following is noted: cited from earlier work.
The nature of series [3]: Safety and tolerability observations in ferrets. The format is in vivo. The conditions noted are these: TA1 0.285 or 0.570 mg/kg/dose s.c. The protocol: The vaccine (either Agrippal influPozzi seasonal vaccine, non-adjuvanted, or Fluad, MF-59 adjuvanted) was administered via intramuscular injection to the right leg at a full human dose of 0.5 mL. TA1 (0.285 or 0.570 mg/kg/dose) was administered by the subcutaneous route at a dose volume that, using a scaling factor for ferret/human dosing, corresponding to approximate human doses of […]. Animals were observed twice daily for mortality, general health, and both local and systemic signs of toxicity and illness as well as behavior under the responsibility of a professional veterinarian. Body weights were recorded prior to dosing only.

The conditions of series [4]: CD-1 mice; TA1 0.3, 0.6 or 1.2 mg/kg/dose i.p. with Fluvirin.
The conditions of series [5]: more than 3,000 patients (adults, elderly, children); cited from earlier work.

Take “Ac-SDAAVDTSSEITTKDLKEKKEVVEEAEN-OH [TA1]”: in series [1], the “adverse clinical signs in animal studies” value is listed as “no evidence of adverse clinical signs”. In addition, in series [2] (after injection of 3.2 mg of TA1 (about 40 μg/kg)), the Peak plasma levels entry is on record as “approximately 100 ng/ml”. Besides, in series [2] (in vivo), the “half-life of TA1 in the circulation” value was “about 2 hours”. Also, the plasma half-life result in series [2] (subcutaneously injected TA1) is “about two”. In series [3], the cage-side observations result was “no cage-side observations were noted”; the safety and tolerability entry is “safe and well-tolerated”. In addition, in series [4], the “clinical/cageside observations or body weight effects” value was “no test article-related clinical/cageside observations or body weight effects” and the survival entry is reported as “All animals survived until scheduled termination”. Also, in series [5], the “drug-related side effects in clinical studies” value is recorded as “virtually no drug-related side effects”.

These data come from US8716012B2, “Alpha thymosin peptides as vaccine enhancers” (priority 2009, dated 2014).
